Among the data in the supplement of paper PMC10307832 are relative viability values, retold here.

Common to all, as to assay: relative viability (nuclei count vs DMSO), 5 days (fraction); higher = more cells survive
Compound in assay [1]: C[C@@H](C(=O)N[C@@H](C1CCCCC1)C(=O)N2CCC[C@H]2C(=O)N[C@@H]3[C@@H](CC4=CC=CC=C34)OCC#CC#CCO[C@@H]5CC6=CC=CC=C6[C@@H]5NC(=O)[C@@H]7CCCN7C(=O)[C@H](C8CCCCC8)NC(=O)[C@H](C)NC)NC [AZD5582] + COc1cccc2cc(-c3nc([C@H]4CC[C@H](C(=O)O)CC4)n4ncnc(N)c34)[nH]c12 [OSI-027] (partner 0.5 µM)
An outline of the steps:
(§1)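 Relative viability was taken as the ratio of nuclei in treated wells to nuclei in vehicle wells. Lung cancer cell lines in 1536-well plates received compounds by pin tool one day after seeding, either one drug alone or a fixed anchor-drug dose plus five library-drug doses (not always all listed) in √10 steps. Nuclei were counted on 4× images after 5 days of treatment, and values are medians of duplicate plates.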

Compound in assay [2]: C[C@@H](C(=O)N[C@@H](C1CCCCC1)C(=O)N2CCC[C@H]2C(=O)N[C@@H]3[C@@H](CC4=CC=CC=C34)OCC#CC#CCO[C@@H]5CC6=CC=CC=C6[C@@H]5NC(=O)[C@@H]7CCCN7C(=O)[C@H](C8CCCCC8)NC(=O)[C@H](C)NC)NC [AZD5582] + Cc1cc(Nc2cc(N3CCN(C)CC3)nc(Sc3ccc(NC(=O)C4CC4)cc3)n2)n[nH]1 [Tozasertib] (partner 0.1 µM)
An outline of the steps: as §1

Compound in assay [3]: C[C@@H](C(=O)N[C@@H](C1CCCCC1)C(=O)N2CCC[C@H]2C(=O)N[C@@H]3[C@@H](CC4=CC=CC=C34)OCC#CC#CCO[C@@H]5CC6=CC=CC=C6[C@@H]5NC(=O)[C@@H]7CCCN7C(=O)[C@H](C8CCCCC8)NC(=O)[C@H](C)NC)NC [AZD5582] + NC(=O)Nc1cc(-c2cccc(F)c2)sc1C(=O)N[C@H]1CCCNC1 [AZD7762] (partner 0.2 µM)
The method, boiled down: as §1

Compound in assay [4]: Cn1nnc2c(C(N)=O)ncn2c1=O [Temozolomide] + Cc1nc(NC(=O)N2CCC[C@H]2C(N)=O)sc1-c1ccnc(C(C)(C)C(F)(F)F)c1 [Alpelisib] (partner 2 µM)
An outline of the steps: as §1

In the case of NCI-H596, the relative viability in assay [1] (first compound 0.01581 µM) was determined as 0.614; in assay [1] (first compound 0.05 µM), 0.334; in assay [2] (first compound 0.01581 µM), 0.943; in assay [2] (first compound 0.05 µM), 0.338; in assay [3] (first compound 0.001581 µM), 1.07; in assay [3] (first compound 0.01581 µM), 1.11. In addition, the relative viability in assay [3] (first compound 0.05 µM) came out at 0.38; in assay [4] (first compound 0.2 µM), 0.582; in assay [4] (first compound 0.6325 µM), 0.494; in assay [4] (first compound 2 µM) it was 0.567; in assay [4] (first compound 6.325 µM), 0.48; in assay [4] (first compound 20 µM), 0.482.

For EKVX, the relative viability in assay [1] (first compound 0.001581 µM) worked out at 0.667; in assay [1] (first compound 0.005 µM), 0.852; in assay [1] (first compound 0.01581 µM), 0.687; in assay [1] (first compound 0.05 µM), 0.778; in assay [2] (first compound 0.001581 µM) it was 0.309; in assay [2] (first compound 0.005 µM), 0.41. For the same cell line, the relative viability in assay [2] (first compound 0.01581 µM) came to 0.388; in assay [2] (first compound 0.05 µM), 0.371; in assay [3] (first compound 0.001581 µM), 0.603; in assay [3] (first compound 0.005 µM) it was 0.661; in assay [3] (first compound 0.01581 µM), 0.565; in assay [3] (first compound 0.05 µM), 0.595. Also, the relative viability in assay [4] (first compound 0.2 µM) is 0.335; in assay [4] (first compound 0.6325 µM) it was 0.935; in assay [4] (first compound 2 µM) it was 0.856; in assay [4] (first compound 6.325 µM) it was 0.886; in assay [4] (first compound 20 µM), 0.656.

Turning to LOU-NH91, the relative viability in assay [1] (first compound 0.001581 µM) was 0.752; in assay [1] (first compound 0.005 µM), 0.739; in assay [1] (first compound 0.01581 µM) it was 0.705; in assay [1] (first compound 0.05 µM) it was 0.711; in assay [2] (first compound 0.001581 µM), 0.594; in assay [2] (first compound 0.005 µM), 0.679. Moreover, the relative viability in assay [2] (first compound 0.01581 µM) is 0.679; in assay [2] (first compound 0.05 µM), 0.613; in assay [3] (first compound 0.001581 µM), 0.715; in assay [3] (first compound 0.005 µM), 0.833; in assay [3] (first compound 0.01581 µM) it was 0.704; in assay [3] (first compound 0.05 µM) it was 0.742. The relative viability came to 0.57 in assay [4] (first compound 0.2 µM); 0.726 in assay [4] (first compound 0.6325 µM); 0.789 in assay [4] (first compound 2 µM); 0.702 in assay [4] (first compound 6.325 µM); 0.47 in assay [4] (first compound 20 µM).

Consider NCI-H1355, for which the relative viability in assay [1] (first compound 0.001581 µM) came to 0.355; in assay [1] (first compound 0.005 µM) it was 0.468; in assay [1] (first compound 0.01581 µM), 0.288; in assay [1] (first compound 0.05 µM), 0.322; in assay [2] (first compound 0.001581 µM), 0.488; in assay [2] (first compound 0.005 µM), 0.558. Also, the relative viability in assay [2] (first compound 0.01581 µM) was determined as 0.52; in assay [2] (first compound 0.05 µM), 0.6; in assay [3] (first compound 0.001581 µM) it was 0.47; in assay [3] (first compound 0.005 µM), 0.667; in assay [3] (first compound 0.01581 µM), 0.643; in assay [3] (first compound 0.05 µM) it was 0.556. For the same cell line, the relative viability came to 0.834 in assay [4] (first compound 0.2 µM); 0.943 in assay [4] (first compound 0.6325 µM); 0.842 in assay [4] (first compound 2 µM); 0.815 in assay [4] (first compound 6.325 µM); 0.803 in assay [4] (first compound 20 µM).

Take LK-2: the relative viability in assay [1] (first compound 0.001581 µM) worked out at 0.237; in assay [1] (first compound 0.005 µM), 0.257; in assay [1] (first compound 0.01581 µM) it was 0.197; in assay [1] (first compound 0.05 µM), 0.179; in assay [2] (first compound 0.001581 µM), 0.161; in assay [2] (first compound 0.005 µM) it was 0.174. Also, the relative viability amounted to 0.149 in assay [2] (first compound 0.01581 µM); 0.182 in assay [2] (first compound 0.05 µM); 0.249 in assay [3] (first compound 0.001581 µM); 0.537 in assay [3] (first compound 0.005 µM); 0.338 in assay [3] (first compound 0.05 µM); 0.544 in assay [4] (first compound 0.2 µM). Also, the relative viability in assay [4] (first compound 0.6325 µM) was 1.07; in assay [4] (first compound 2 µM), 1.1; in assay [4] (first compound 6.325 µM), 0.466; in assay [4] (first compound 20 µM), 0.391.
